From patent US8163805B2, “Small molecule antagonists of Bcl-2 family proteins” (The Regents of the University of Michigan, priority 2001, dated 2012)
Where “and” joins values, the source holds several entries; their conditions need not be identical. Identical values can stand only once.

Legend:
HNSCC cell lines = experiment: 6-day MTT cell survival, mean over HNSCC cell lines; format: cell-based, human
UM-SCC-1 = experiment: 6-day MTT cell growth, UM-SCC-1; format: cell-based, human; settings: read-out: IC50, inhibition of cell growth
Protocol: (§1) UM-SCC and human fibroblast cell lines were continuously exposed to varying concentrations of (−)-gossypol in 6-day MTT cell survival assays. Control wells contained media (DMEM) with vehicle alone. For each data point n=5.
(§2) Ten squamous cell carcinoma cell lines established at the University of Michigan (UM-SCC) and three human fibroblast lines were grown in Dulbecco's modified Eagle's medium (DMEM) supplemented with 10% fetal bovine serum. UM-SCC cell lines originated from the larynx (n=2; UM-SCC-12, -23), oral cavity/oropharynx (n=5; UM-SCC-1, -6, -14A, -74B, -81B), hypopharynx (n=1; UM-SCC-22A) and metastases from laryngeal cancers (n=2; UM-SCC-17B, -25). Human fibroblast cell lines originated from surgical specimens (fibroblast cell lines 2 and 3) and neonatal foreskin samples (fibroblast cell line 1).
(§3) Logarithmically growing cell lines were cultured, washed, counted, and plated at 5,000-15,000 cells per well in duplicate wells of 96-well plates and incubated in DMEM overnight. […] The MTT assay measures cell survival based on mitochondrial conversion of MTT from a soluble tetrazolium salt into an insoluble colored formazan precipitate, which is dissolved in dimethyl sulfoxide and quantitated by spectrophotometry. […] Percent absorbance relative to control was plotted as a linear function of drug concentration.

UM-SCC-14A [1] = experiment: Flow cytometric TUNEL apoptosis assay, UM-SCC-14A; format: cell-based, human; settings: 10 μM, 48-hour
Protocol: (§4) Briefly, FIGS. 24A-24C show apoptosis after (−)-gossypol as measured by a fluorescent flow cytometric TUNEL assay. Open peaks represent BrdU labeling of untreated cells. Shaded peaks indicate BrdU labeling of cell populations following 48-hour treatment with 10 μM (−)-gossypol; FIG. 24A, UM-SCC-cell lines with wild type p53; FIG. 24B, UM-SCC-cell lines with mutant p53; and FIG. 24C normal fibroblast cells.
(§5) Apoptosis of UM-SCC cell lines following (−)-gossypol treatment was quantitatively detected by enzymatic labeling of DNA strand breaks using terminal deoxynucleotidyltransferase (TdT) and Alexa Fluor-BrdUTP, known as the TdT-UTP nick end-labeling (TUNEL) assay by flow cytometry. Cells were exposed to (−)-gossypol for 48 hours, harvested, fixed and TUNEL stained according to the manufacturer's protocol (Molecular Probes Inc., Eugene, Oreg.). Ten thousand cells were analyzed per sample using excitation of Alexa Fluor at 488 nm. Apoptotic index (AI) was defined as percent of apoptotic cells in the treatment population minus that in the vehicle control population.

[2] = system: Fib-2 (fibroblast cell line 2); experiment: 6-day MTT cell growth, Fib-2; format: cell-based, human; settings: read-out: IC50, inhibition of cell growth
Protocol: as §1, §2, §3

UM-SCC-14A [3] = experiment: 6-day MTT cell growth, UM-SCC-14A; format: cell-based, human; settings: read-out: IC50, inhibition of cell growth
Protocol: as §1, §2, §3

DU145 = experiment: MTT-based 5-day cell proliferation, DU145; settings: DU145, FIG. 42
Source text: The present invention is not limited to any mechanism. Indeed, a mechanistic understanding of the invention is unnecessary to practice (make and use) the present compositions and methods.

UM-SCC-12 [4] = experiment: Flow cytometric TUNEL apoptosis assay, UM-SCC-12; format: cell-based, human; settings: 10 μM, 48-hour
Protocol: as §4, §5

UM-SCC-81B = experiment: 6-day MTT cell growth, UM-SCC-81B; format: cell-based, human; settings: read-out: IC50, inhibition of cell growth
Protocol: as §1, §2, §3

UM-SCC-14A [5] = experiment: Trypan blue exclusion cell death, UM-SCC-14A; format: cell-based, human; settings: 10 μM, 48 hour
Protocol: (§6) Cells were seeded in 24 or 96-well-plates and gossypol compounds were prepared at 2-10 fold dilutions in suitable medium. […] Cell viability was then determined by the trypan-blue assays. Inhibition of cell growth was determined by treating cells with gossypol compounds for 3-6 days. Cell inhibition was determined using XTT. In some embodiments, MTT assays are used to determine cell inhibition.

MDA-MB-231 cells = experiment: 5 day MTT cell growth assay, MDA-MB-231; format: cell-based, human; settings: breast cancer cell lines with high levels of Bcl-XL, FIG. 12
Protocol: For example, the ability of gossypol compounds to inhibit MDA-MB-231 cell growth was tested in a 5 day MTT assay.
Cells were seeded in 24 or 96-well-plates and gossypol compounds were prepared at 2-10 fold dilutions in suitable medium. Inhibition of cell viability was determined by treating the cells with the gossypol compounds for 24 hrs. […] Inhibition of cell growth was determined by treating cells with gossypol compounds for 3-6 days. […] In some embodiments, MTT assays are used to determine cell inhibition.
Absorbance at 540 nm is used to measure the amount of formazan product.

UM-SCC-12 [6] = experiment: 6-day MTT cell growth, UM-SCC-12; format: cell-based, human; settings: read-out: IC50, inhibition of cell growth
Protocol: as §1, §2, §3

UM-SCC-23 = experiment: 6-day MTT cell growth, UM-SCC-23; format: cell-based, human; settings: read-out: IC50, inhibition of cell growth
Protocol: as §1, §2, §3

UM-SCC-12 [7] = experiment: Trypan blue exclusion cell death, UM-SCC-12; format: cell-based, human; settings: 10 μM, 48 hour
Protocol: as §6

fibroblasts = experiment: 6-day MTT cell survival, mean over fibroblasts; format: cell-based, human

What does the source list for `Cc1cc2c(C(C)C)c(O)c(O)c(C=O)c2c(O)c1-c1c(C)cc2c(C(C)C)c(O)c(O)c(C=O)c2c1O` [(−)-gossypol]?
IC50 (HNSCC cell lines): 5.57 ± 2.57 µM; IC50 (UM-SCC-1): 2 µM and 1.5 µM; apoptotic index (AI) (UM-SCC-14A [1]): 14.1%; IC50 [2]: 20 µM; IC50 (UM-SCC-14A [3]): 11 µM; cytotoxicity (DU145): very limited effect; apoptotic index (AI) (UM-SCC-12 [4]): 27.2%; IC50 (UM-SCC-81B): 4 µM; surviving (trypan blue excluding) fraction relative to untreated controls (UM-SCC-14A [5]): 16%; potency in inhibition of cell growth relative to (+)-gossypol, first statement (MDA-MB-231 cells): 2 times; potency in inhibition of cell growth relative to (+)-gossypol, second statement (MDA-MB-231 cells): 5-10 times; IC50 (UM-SCC-12 [6]): 4 µM; IC50 (UM-SCC-23): 1.5 µM; surviving (trypan blue excluding) fraction relative to untreated controls (UM-SCC-12 [7]): 14%; IC50 (fibroblasts): 20.3 ± 9.2 µM
